From patent US7678787B2, “Pyrrolobenzodiazepine pyridine carboxamides and derivatives as follicle-stimulating hormone receptor antagonists” (Wyeth, priority 2005, dated 2010)

Assays:
[1] = target: T1, human FSH receptor (Homo sapiens, UniProt P23945); assay: FSH receptor-dependent CRE-luciferase reporter gene assay (CHO FSH-R 6CRE-Luc cells); type: cell-based; conditions: 2-dose format; test concentration in parentheses = 30 μM; percent inhibition of response to EC50 of FSH; read-out: CRE % inhibition
T1 construct: host or cells: CHO-K1 (CHO FSH-R 6CRE-Luc, 1D7 cells)
T1 sequence (P23945 18-695): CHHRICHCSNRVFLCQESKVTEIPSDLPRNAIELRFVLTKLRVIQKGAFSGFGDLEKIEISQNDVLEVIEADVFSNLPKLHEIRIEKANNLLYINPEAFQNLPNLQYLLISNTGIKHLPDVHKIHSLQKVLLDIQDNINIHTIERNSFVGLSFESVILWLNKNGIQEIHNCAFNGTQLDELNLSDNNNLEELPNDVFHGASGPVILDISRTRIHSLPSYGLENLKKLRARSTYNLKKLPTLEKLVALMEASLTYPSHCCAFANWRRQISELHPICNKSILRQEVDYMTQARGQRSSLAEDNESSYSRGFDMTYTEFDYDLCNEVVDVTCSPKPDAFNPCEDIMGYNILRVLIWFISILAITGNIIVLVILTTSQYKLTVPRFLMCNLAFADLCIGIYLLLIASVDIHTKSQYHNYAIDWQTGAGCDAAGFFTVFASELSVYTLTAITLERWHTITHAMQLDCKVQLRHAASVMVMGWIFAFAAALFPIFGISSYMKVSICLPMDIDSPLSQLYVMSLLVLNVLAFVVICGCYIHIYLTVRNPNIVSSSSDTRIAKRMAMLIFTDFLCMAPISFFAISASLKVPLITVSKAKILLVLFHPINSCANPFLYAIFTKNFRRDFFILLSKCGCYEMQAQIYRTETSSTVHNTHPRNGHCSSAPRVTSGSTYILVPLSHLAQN

CC(C)(C)CC(=O)N1Cc2ccc(C(=O)NCc3cccnc3)n2Cc2ccccc21 [Example 148]
melting point: 103 to 107 °C | inhibition at 30 µM [1]: 35%
